Measured values: article PMC10870261, “Photoinduced Hydrogel-Forming Caged Peptides with Improved Solubility” (ACS Omega, 2024)
Residues, ends and D or L forms follow the SMILES beside them. *: point of attachment. X1 = O=C(COC(=O)*)c1ccc(O)cc1

Tests used:
[1] = Solubility and handling (observation during purification, spectroscopic measurement); type: physicochemical; settings: aqueous / PBS, qualitative
Experimental: To support this change in “behavior” of the caged derivative, spectroscopic (transmittance) measurements were conducted, which confirmed the suppressed aggregation compared to the nonprotected peptide (Figure 1).
Therefore, its purification and characterization could be carried out in the usual way as for peptides (e.g., RP-HPLC and LC–MS).

[2] = tested on: A2058 human melanoma cell line; assay: Fluorescence microscopy of cellular arrangement in hydrogels (acridine orange); type: cell-based; settings: A2058 cells, 96 h, acridine orange 0.1 mM, 10× magnification, Z-stacks
Experimental: Peptides were dissolved in PBS (1×) at a 1.2 mM concentration. 50–50 μL of the resulting stock solution was added to a 96-well, optical bottom plate. The plate was illuminated with an UV lamp (Sylvania 254 nm, 8 W) for 20 min, followed by the distribution of 50–50 μL of RPMI-1640 medium [supplemented with 10% (v/v %) FBS and 1% L-glutamine, 1% penicillin/streptomycin] into the wells. Then, the plate was incubated for 1 h. For the 3D microscopic imaging of the hydrogels, cells were treated with acridine orange (at 0.1 mM) and incubated for 30 min. Fluorescence measurements were carried out on a Zeiss Celldiscoverer 7 (Zeiss, Jena, Germany) using 10× magnification (Plan-Apochromat λ/0.35 NA objective with 2× tube lens) and acquisition of Z-stacks with 10 μm intervals between individual planes. The images were processed by using ZEN Blue 2.6 software (Carl Zeiss AG, Jena, Germany). Figure 4 (A) Viability of the A2058 human melanoma cell line in native EAK-16-II and caged peptide hydrogels as well as in monolayer (2D) after 96 h. Cell viability was measured using CellTiterGlo assay (Promega, Madison, WI, USA) and normalized to 2D growing cells (control cells) (normalized live cells = 100%). Data are presented as mean values ± standard deviation (SD) from three independent experiments. (B) 3D representation of cellular arrangements in both types of hydrogels. […]

[3] = cited from earlier work
Experimental: These turbidity measurements were conducted at a 300 μM concentration, which was also used for in vitro experiments.

[4] = Optical transmittance (turbidity) in PBS; type: physicochemical; settings: 300 μM in PBS (pH 7.4, 1×), 25 °C, 532 nm, after the starting point
Experimental: Transmittance was measured using an UV–vis spectrophotometer (Jasco V-650, Jasco, Cremella, Italy) in phosphate-buffered saline (PBS, pH 7.4, 1×) buffer.  Figure 1 Optical transmittance of native (nonprotected) EAK16-II peptide and caged-EAK16-II (300 μM) in PBS, 25 °C, 532 nm, 8 h. […] These turbidity measurements were conducted at a 300 μM concentration, which was also used for in vitro experiments.

[5] = tested on: A2058 human melanoma cell line; assay: CellTiterGlo viability assay, cells in 2D monolayer or in peptide hydrogel (3D); type: cell-based; settings: HPAA 1 mM, 96 h, normalized to 2D control, n = 3
Experimental: Human melanoma cell line A2058 was obtained from the European Collection of Authenticated Cell Cultures (ECACC, Salisbury, UK) and was cultured in RPMI 1640 medium supplemented with 10% (v/v %) fetal bovine serum (Biosera Europe, Nuaillé, France), 1% L-glutamine, and 1% penicillin/streptomycin (Gibco, Invitrogen Corporation, New York, USA). Cells were propagated in standard cell culture conditions (37 °C, 5% CO2).
Peptides were dissolved in PBS (1×) at a 1.2 mM concentration. 50–50 μL of the resulting stock solution was added to a 96-well, optical bottom plate. […]
Viability tests were performed using CellTiterGlo (Promega, Madison, WI, USA) reagent to determine the quantity of viable cells in both 2D setups and in hydrogels. […] The luminescence signal was measured by a Fluoroskan FL microplate fluorometer and luminometer (Thermo Scientific, Waltham, MA, USA). […] All quantitative data are presented as the mean ± standard deviation (SD). The results were evaluated with MS Excel and OriginPro 2020 software (OriginLab Corporation, Northampton, MA, USA).
Results were evaluated using MS Excel and OriginPro 2020 software (OriginLab Corp., Northampton, MA, USA). […] Data were statistically analyzed using one-way analysis of variance followed by Tukey’s posthoc test. […]

CC(=O)N[C@@H](C)C(=O)N[C@@H](CCC(=O)O)C(=O)N[C@@H](C)C(=O)N[C@@H](CCC(=O)O)C(=O)N[C@@H](C)C(=O)N[C@@H](CCCCNC(=O)OCC(=O)c1ccc(O)cc1)C(=O)N[C@@H](C)C(=O)N[C@@H](CCCCN)C(=O)N[C@@H](C)C(=O)N[C@@H](CCC(=O)O)C(=O)N[C@@H](C)C(=O)N[C@@H](CCC(=O)O)C(=O)N[C@@H](C)C(=O)N[C@@H](CCCCNC(=O)OCC(=O)c1ccc(O)cc1)C(=O)N[C@@H](C)C(=O)N[C@@H](CCCCN)C(N)=O [caged-EAK16-II] (Ac-AEAEAK(X1)AKAEAEAK(X1)AK-NH2)
Solubility [1]: good solubility

Ac-AEAEAKAKAEAEAKAK-NH2 [EAK16-II]
Cellular arrangement (cellular aggregate formation) in hydrogel [2]: distinct cellular aggregates | Critical aggregating concentration [3]: 0.1 mg/mL | Time to "microgelatinization" (sedimentation of peptide aggregates, increase in transmittance) [4]: Around 10 min

O=C(O)Cc1ccc(O)cc1 [HPAA, p-hydroxyphenylacetic acid]
In vitro cytotoxicity, monolayer (2D) ([5]; A2058 cells in 2D (plastic surface)): did not have any long-term toxic effect | In vitro cytotoxicity, in EAK16-II hydrogel (3D) ([5]; A2058 cells in EAK16-II (300 μM) hydrogel): did not have any long-term toxic effect
